{
  "source": "patent US20250205209A1",
  "about": "“Methods of Treating a Subject for Myalgic Encephalomyelitis/Chronic Fatigue Syndrome (ME/CFS) and Compositions for Use in The Same” (INCELLDX, INC., priority 2022, published 2025)",
  "origin": "cited, not measured here",
  "key": {"[1]": {"conditions": "HIV patients; >5 year follow-up of the MOTIVATE trials"}, "R5-tropic HIV-1": {"system": "R5-tropic HIV-1", "conditions": "individuals with R5-tropic HIV-1; MOTIVATE 1 and MOTIVATE 2"}},
  "data": [
    {"compound": "Cc1nnc(C(C)C)n1[C@@H]1C[C@H]2CC[C@@H](C1)N2CC[C@H](NC(=O)C1CCC(F)(F)CC1)c1ccccc1", "note": "[Maraviroc, 4,4-difluoro-N-[(1S)-3-[(1S,5R)-3-(3-methyl-5-propan-2-yl-1,2,4-triazol-4-yl)-8-azabicyclo[3.2.1]octan-8-yl]-1-phenylpropyl]cyclohexane-1-carboxamide]", "values": [
      {"measurement": "instances of death and other health threats such as hepatic failure and myocardial infarctions", "setting": "[1]", "result": "limited instances of death and other health threats"},
      {"measurement": "HIV viral loads", "setting": "R5-tropic HIV-1", "result": "lower levels of HIV viral loads"}
    ]}
  ]
}
